# Assays:
# [1] = tested on: PupVSMC rat neonatal aortic smooth muscle cells; assay: Cell proliferation assay, PupVSMC; type: cell-based
# Experimental: (§1) Early passage rat aortic smooth muscle cells (CV Therapeutics Cell repository) were seeded in 48 well dishes (Falcon, […]) at a density of 20,000 cells/ml of DME containing 5% heat inactivated bovine serum. The cells were incubated in a standard tissue culture incubator for 48 hr. The medium was aspirated and the wells were replenished with 0.2 ml of fresh medium. Compounds of this invention were added at concentrations ranging from 100 to 0.37 μg/ml. After 48 hr incubation, the medium was aspirated and the cultures were treated with 0.2 ml of saline 0.25 μl of phenozine methosulfate solution containing MTS (Cell Titer 96® Aqueous Non-radioactive cell proliferation assay kit, Catalog # G 5430, Promega, 2800 Woods Hollow Road, Madison, Wis. 53711-5399).
# (§2) Similar assays were performed using the following cell lines; P388—mouse lymphoid neoplasm; L1210—mouse lympheytic leukemia; Caco2 human colon adenocarcinoma; MCF7 human breast adenocarcinoma; PupVSMC rat neonatal aortic smooth muscle cells; Ovcar human ovarian Carcinoma; Pancl human pancreatic adenocarcinoma; and HUVEC human umbilical cord endothelial cells.
# [2] = tested on: L1210 mouse lympheytic leukemia; assay: Cell proliferation assay, L1210; type: cell-based; conditions: L 120 cells
# Experimental: as §1, §2
# [3] = tested on: Pancl human pancreatic adenocarcinoma; assay: Cell proliferation assay, Panc1; type: cell-based; conditions: Panc 1 cells
# Experimental: as §1, §2
# [4] = tested on: Ovcar human ovarian Carcinoma; assay: Cell proliferation assay, OvCar; type: cell-based; conditions: OvCar cells
# Experimental: as §1, §2
# [5] = tested on: MCF7 human breast adenocarcinoma; assay: Cell proliferation assay, MCF7; type: cell-based; conditions: MCF7 cells
# Experimental: as §1, §2
# [6] = tested on: P388 mouse lymphoid neoplasm; assay: Cell proliferation assay, P388; type: cell-based; conditions: P388 cells
# Experimental: as §1, §2
# [7] = tested on: Caco2 human colon adenocarcinoma; assay: Cell proliferation assay, Caco2; type: cell-based; conditions: Caco2 cells
# Experimental: as §1, §2
# rat carotid artery = assay: Neointima formation following balloon angioplasty, rat carotid artery model; type: in vivo; conditions: 5 mg/mL, acute local delivery, 14 days after injury, treated vs untreated segment
# Text: In this example, the left common carotid arteries of adult male rats (n=10 per experimental group) were surgically injured using a Fogarty arterial embolectomy catheter. Immediately after injury, the common carotid artery was bisected with a vascular clamp, thereby establishing an untreated and treated segment. A drug delivery catheter was then inserted into the distal half of the common carotid. After drug delivery, the catheter was removed and excess drug was washed out by removing the vascular clamp and re-establishing blood flow before closing the artery. The animals were allowed to recover for 14 days before harvesting the common carotid artery. The harvested tissue was sectioned and the neointimal area was digitized and measured with a computer planimetery system. For each animal, 15 measurements were averaged for the untreated segment and 15 for the treated. {2-[(2-aminoethyl)amino]-9-(methylethyl)purin-6-yl}[(4-chlorophenyl)methyl]amine was administered at a dose of 5 mg/mL reducing the neointimal area about 90% in comparison to the 6% reduction of saline alone.
"IC50 (μg/ml) for Inhibition of Cell Proliferation, L 120 [2] [µg/mL]","IC50 (μg/ml) for Inhibition of Cell Proliferation, Panc 1 [3] [µg/mL]","IC50 (μg/ml) for Inhibition of Cell Proliferation, OvCar [4] [µg/mL]","IC50 (μg/ml) for Inhibition of Cell Proliferation, MCF7 [5] [µg/mL]","IC50 (μg/ml) for Inhibition of Cell Proliferation, P 388 [6] [µg/mL]","IC50 (μg/ml) for Inhibition of Cell Proliferation, Caco2 [7] [µg/mL]",Structure (SMILES),"IC50 (μg/ml) for Inhibition of Cell Proliferation, PupVSMC ([1]; PupVSMC cells, Table 8) [µg/mL]",reduction of the neointimal area (rat carotid artery),"inhibitory activity, Pup VSMC ([1]; Rat neonatal aortic smooth muscle cells, Table 9, the values are: IC50) [µg/mL]"
4.0,4.0,7.0,4.0,1.0,0.5,CC(C)n1cnc2c(Nc3ccc(-c4ccccc4)cc3)nc(N(CCO)CCO)nc21 [2-diethanolamino-6-(4-phenylanilino)-9-isopropylpurine],1.0,,
,,,,,,CC(C)n1cnc2c(NCc3ccc(Cl)cc3)nc(NCCN)nc21 [{2-[(2-aminoethyl)amino]-9-(methylethyl)purin-6-yl}[(4-chlorophenyl)methyl]amine],,about 90%,0.1

# — patent US6790958B2, “Purine inhibitors of cyclin dependent kinase 2 & IKBA” (priority 1996, dated 2004)
